pIC50: −log10 of the molar value. “And” between values parts separate entries of the source, which are not always exact repeats. Equal values may be shown once.

The target of the assay is Replicase polyprotein 1ab (Severe acute respiratory syndrome coronavirus 2, UniProt P0DTD1). The assay can be described thus: Functional biochemical assay to identify treatments for viral infectious disease that targets SARS-COV-2 nsp3 macrodomain, whereby the mechanism of action displaces an ADP-Ribose modified peptide from the binding site. Utilizing a time-resolved fluorescence method to measure binding by reading the emitted fluorescence intensity in two wavelengths.
`c1nc(-c2ccc3c(c2)OCO3)c2cc[nH]c2n1` showed a pIC50 of less than 4.00.

Take `O=C(O)C[C@@H](NC(=O)c1ccnc2ncccc12)c1ccc(Br)cc1`: the pIC50 is 4.06 and 4.03. Turning to `O=C(Nc1cccc2c(C(=O)N[C@@H](C(=O)O)c3ccc4c(c3)OCCO4)c[nH]c12)NC1CC1`, the negative logarithm of the IC50 (pIC50) was less than 4.00.

Take `Cc1ccc(C(=O)Nc2ncnc3[nH]c(C)c(C)c23)cn1`: the negative logarithm of the IC50 (pIC50) was less than 4.00.

With `O=C(O)C[C@@H](NC(=O)c1ncnc2[nH]ccc12)c1ccc(NCC2C[C@@H](O)[C@@H](O)C2)cc1` (stereo partly specified), the pIC50 was 4.60 and 4.56. As for `Cn1cc([C@@H](NC(=O)c2c[nH]c3c(NC(=O)NC4CC4)cccc23)C2CCC2)cn1`, the pIC50 is less than 4.00. In the case of `NS(=O)(=O)C[C@@H](NC(=O)c1ncnc2[nH]ccc12)c1ccc(Br)cc1` it was less than 4.00; in that of `Cc1nnc(N[C@@H](c2ccc3c(c2)OCCO3)C(C)C)c2ccccc12`, less than 4.00. In the case of `O=C(O)C[C@@H](NC(=O)c1cccc2cc[nH]c12)c1ccc(Br)cc1` it was less than 4.00. Consider `O=C(NCc1nc(-c2cc3c(N4CCCC5(CC5)C4)ncnc3[nH]2)c[nH]1)c1ccc(F)nc1`, for which the pIC50 is 4.60 and 4.68. For the molecule `COCc1cc(CNc2ccc([C@@H](CC(=O)O)NC(=O)c3ncnc4[nH]ccc34)cc2)on1`, the pIC50 is 4.97 and 4.91.

On to `Cc1[nH]c2ncnc(NC(=O)c3ccc(Cl)nn3)c2c1C`, for which the pIC50 was less than 4.00. In the case of `CC(C)n1nccc1S(=O)(=O)Nc1cnc2[nH]ccc2c1` it was less than 4.00; in that of `Cc1[nH]c2ncnc(NC(=O)c3ccnnc3)c2c1C`, less than 4.00; in that of `Cc1[nH]c2ncnc(NC(=O)c3cccc(Cl)n3)c2c1C`, less than 4.00. In the case of `Cc1[nH]c2ncnc(NC(=O)c3cccnn3)c2c1C` it was less than 4.00; in that of `Cc1[nH]c2ncnc(NC(=O)c3ccc(-n4cccn4)nc3)c2c1C`, less than 4.00.

On to `COc1ccc2c(NC(=O)c3ccc(NC(=O)NC4CC4)cc3)c(C(=O)O)sc2c1`, for which the pIC50 is less than 4.00.

Molecule `Cc1[nH]c2ncnc(NC(=O)Cc3ccc(Cl)nc3)c2c1C` showed a negative logarithm of the IC50 (pIC50) of less than 4.00. In the case of `O=C(O)C[C@@H](CNC(=O)c1ncnc2[nH]ccc12)c1ccc(Cl)cc1` it was 4.19 and 4.15; in that of `Cc1[nH]c2ncnc(NC(=O)c3cncnc3)c2c1C`, less than 4.00; in that of `COC(=O)C[C@@H](NC(=O)c1ncnc2[nH]ccc12)c1ccc(Br)cc1`, less than 4.00. Consider `COCc1cc(CNc2ccc([C@@H](CC(=O)O)NC(=O)c3c[nH]c4ncncc34)cc2)on1`, for which the pIC50 is less than 4.00. In the case of `Cc1[nH]c2ncnc(NC(=O)c3ccc(N(C)C)nc3)c2c1C` it was less than 4.00; in that of `Cc1cc2c(C(=O)N[C@@H](CC(=O)O)c3ccc(Br)cc3)cccc2[nH]1`, less than 4.00. On to `O=C(O)C[C@@H](NC(=O)c1ccnc2cn[nH]c12)c1ccc(Br)cc1`, for which the negative logarithm of the IC50 (pIC50) was 4.99 and 5.02. For `O=C(O)C[C@@H](NC(=O)c1cccc2[nH]cnc12)c1ccc(Br)cc1`, the negative logarithm of the IC50 (pIC50) was 4.41 and 4.39.

`CC(C)[C@@H](NC(=O)c1c[nH]c2c(NC(=O)NC3CC3)cccc12)C(F)F` gave a pIC50 of less than 4.00. Molecule `CN(C)c1ccc(C(=O)N[C@@H](CC(=O)O)c2ccc(Br)cc2)nc1` had a pIC50 of less than 4.00. `O=C(O)C[C@@H](NC(=O)Cc1c[nH]c2ncccc12)c1ccc(Br)cc1`: the pIC50 is less than 4.00.

`O=C(NCSC[C@@H](NC(=O)c1ncnc2[nH]ccc12)C(=O)O)c1ccccc1` gave a negative-log IC50 (pIC50) of less than 4.00. In turn, `Cc1[nH]c2ncnc(NC(=O)c3ccc(C(F)(F)F)nc3)c2c1C` gave a pIC50 of less than 4.00. In the case of `COc1ccc(C(=O)N2CCC(c3ccn4ncc(C(=O)N[C@@H]5CCC[C@@H]5C(=O)O)c4c3)CC2)cc1` it was 4.69 and 4.61. In the case of `O=C(O)C[C@@H](NC(=O)c1ccnc(-n2cccc2)c1)c1ccc(Br)cc1` it was less than 4.00. In the case of `COc1cc(Nc2ccc([C@@H](CC(=O)O)NC(=O)c3ncnc4[nH]ccc34)cc2)n[nH]1` it was 5.12 and 5.14; in that of `Cc1[nH]c2ncnc(NC(=O)c3cccnc3)c2c1C`, less than 4.00.

`CC(C)[C@@H](Nc1ncnc2c1ccn2C)c1ccc2c(c1)OCCO2` had a pIC50 of less than 4.00.

Consider `O=C(O)C[C@@H](NC(=O)c1nccc2[nH]ncc12)c1ccc(Br)cc1`, for which the negative logarithm of the IC50 (pIC50) was 4.61 and 4.62. In the case of `COC[C@@H]1C[C@@H]1CNc1ccc([C@@H](CC(=O)O)NC(=O)c2ncnc3[nH]ccc23)cc1` it was 4.35 and 4.36; in that of `COc1ccc(C(=O)Nc2ncnc3[nH]c(C)c(C)c23)cn1`, less than 4.00. In the case of `Cc1[nH]c2ncnc(NC(=O)[C@@H]3Cc4ccccc4CO3)c2c1C` it was less than 4.00; in that of `CC(C)[C@@H](CO)NC(=O)c1c[nH]c2c(NC(=O)NC3CC3)cccc12`, less than 4.00.

The molecule `Cc1[nH]c2ncnc(NC(=O)c3ccc(C#N)nc3)c2c1C` had a negative logarithm of the IC50 (pIC50) of less than 4.00. In the case of `Cc1[nH]c2ncnc(NC(=O)c3cnc(Cl)cn3)c2c1C` it was less than 4.00; in that of `CC(C)[C@@H](Nc1nc(C(F)F)nc2ccccc12)c1ccc2c(c1)OCCO2`, less than 4.00; in that of `Cc1[nH]c2ncnc(NC(=O)c3ccc(-n4cnnc4)cc3)c2c1C`, less than 4.00. In the case of `Cc1[nH]c2ncnc(NC(=O)[C@@H](CC(F)F)C3CCC3)c2c1C` it was 5.09 and 5.08; in that of `O=C(O)C[C@@H](NC(=O)c1cccc2[nH]ncc12)c1ccc(Br)cc1`, less than 4.00. In the case of `Cc1[nH]c2ncnc(NC(=O)c3ncccc3Cl)c2c1C` it was 4.31 and 4.22; in that of `Cn1c(C(=O)O)c(NC(=O)c2ccc(NC(=O)NC3CC3)cc2)c2ccccc21`, less than 4.00; in that of `O=C(Nc1ccc(C(=O)Nc2c(C(=O)O)sc3ncccc23)cc1)NC1CC1`, less than 4.00.

Turning to `O=C(Nc1cccc2c(C(=O)N[C@@H](c3ccccc3)C(F)F)c[nH]c12)NC1CC1`, the pIC50 was less than 4.00. In the case of `O=C(O)C[C@@H](NC(=O)c1c[nH]c2ncccc12)c1ccc(Br)cc1` it was 4.56 and 4.54; in that of `Cc1ccc(C(=O)N2CCC(c3ccn4ncc(C(=O)N[C@@H]5CCC[C@@H]5C(=O)O)c4c3)CC2)cc1`, 4.68 and 4.66. In the case of `O=C(Nc1ccc(C(=O)Nc2c(C(=O)O)sc3cnccc23)cc1)NC1CC1` it was less than 4.00; in that of `NC(=O)[C@@H](NC(=O)c1ncnc2[nH]ccc12)c1ccc(F)cc1`, less than 4.00; in that of `COc1ccc([C@@H](CC(=O)O)NC(=O)c2ncnc3[nH]ccc23)cc1`, 5.68 and 5.67 and 5.43.

Turning to `Cc1[nH]c2ncnc(NC(=O)[C@@H]3CCc4c(Cl)cccc43)c2c1C`, the pIC50 is less than 4.00. `Cc1[nH]c2ncnc(NC(=O)c3cncc(Cl)n3)c2c1C` had a negative logarithm of the IC50 (pIC50) of less than 4.00. In the case of `O=C(N[C@@H](Cc1ccc(Br)cc1)C(=O)O)c1ncnc2[nH]ccc12` it was less than 4.00. In the case of `Cn1ncc2c(C(=O)N[C@@H](CC(=O)O)c3ccc(Br)cc3)ccnc21` it was 4.15 and 4.09; in that of `CC(=O)Nc1ccc(C(=O)Nc2ncnc3[nH]c(C)c(C)c23)cc1Cl`, less than 4.00. In the case of `O=C(Nc1cccc2c(C(=O)N[C@@H](CO)c3ccc4c(c3)OCCO4)c[nH]c12)NC1CC1` it was less than 4.00. As to `Cc1nc2c(C(=O)N[C@@H](CC(=O)O)c3ccc(Br)cc3)ccnc2[nH]1`, the pIC50 is 4.69. In the case of `CC(C)[C@@H](NCc1ncc[nH]1)c1ccc2c(c1)OCCO2` it was less than 4.00. In the case of `O=C(O)C[C@@H](NC(=O)c1cncc2[nH]ccc12)c1ccc(Br)cc1` it was 4.45 and 4.38; in that of `C[C@@H](O)[C@@H](NC(=O)c1csc2c(NC(=O)NC3CC3)ncnc12)c1ccccc1F`, less than 4.00; in that of `Cc1ncc(CCNC(=O)c2csc3c(NC(=O)NC4CC4)ncnc23)s1`, less than 4.00. In the case of `COC[C@@H]1C[C@@H]1CNc1ccc([C@@H](CC(=O)O)NC(=O)c2c[nH]c3ncncc23)cc1` it was less than 4.00; in that of `Cc1[nH]c2ncnc(NC(=O)c3ccc(S(C)(=O)=O)nc3)c2c1C`, less than 4.00; in that of `O=C(Nc1ncnc2c(C(=O)N[C@@H](c3cccs3)C3CCCC3)csc12)NC1CC1`, less than 4.00.

`CC(C)[C@@H](NCc1ccc(-n2cccn2)cc1)c1ccc2c(c1)OCCO2` showed a pIC50 of less than 4.00. Take `Cc1[nH]c2ncnc(NC(=O)Cc3cn[nH]c3)c2c1C`: the pIC50 is 4.12 and 4.00.

In turn, `NC(=O)C[C@H](NC(=O)c1ncnc2[nH]ccc12)c1ccc(Cl)cc1` had a pIC50 of less than 4.00.

Regarding `Cc1[nH]c2ncnc(NC(=O)c3ccc(Cl)cn3)c2c1C`, the negative-log IC50 (pIC50) is less than 4.00. In the case of `CC(C)[C@@H](Nc1ncnc2ccccc12)c1ccc2c(c1)OCCO2` it was 4.23 and 4.22; in that of `CC(C)[C@@H](NCc1ccc(-n2ccnc2)cc1)c1ccc2c(c1)OCCO2`, less than 4.00. In the case of `O=C(N[C@@H](CO)Cc1ccncc1)c1ncnc2[nH]ccc12` it was less than 4.00; in that of `O=C(O)C[C@@H](NC(=O)c1cc2[nH]ccc2cn1)c1ccc(Br)cc1`, 5.17 and 5.12. In the case of `O=C(Nc1cccc2c(C(=O)N[C@@H]3c4ccccc4C[C@@H]3C(=O)O)c[nH]c12)NC1CC1` it was 5.46 and 5.42 and 5.64 and 5.73; in that of `CC(C)[C@@H](NC(=O)c1ccnc2ccccc12)c1ccc2c(c1)OCCO2`, less than 4.00; in that of `O=C(O)C[C@@H](NC(=O)c1ccc2[nH]ccc2n1)c1ccc(Br)cc1`, 4.38 and 4.42. Regarding `CCc1coc(Nc2ccc([C@@H](CC(=O)O)NC(=O)c3ncnc4[nH]ccc34)cc2)n1`, the negative logarithm of the IC50 (pIC50) is 4.86 and 4.81. In the case of `Cc1[nH]c2ncnc(NC(=O)[C@@H]3CCCc4ncccc43)c2c1C`, the negative-log IC50 (pIC50) was less than 4.00. In the case of `O=C(N[C@@H](C(=O)O)c1ccc(Br)cc1)c1ncnc2[nH]ccc12` it was 4.28 and 4.20; in that of `O=C(O)C[C@@H](NC(=O)c1nccc2cc[nH]c12)c1ccc(Br)cc1`, 4.53 and 4.51.

`Cn1ccc2c(C(=O)N[C@@H](CC(=O)O)c3ccc(Br)cc3)ccnc21`: the pIC50 was 4.44 and 4.48. In the case of `Cc1[nH]c2ncnc(NC(=O)c3cc(Cl)ccn3)c2c1C` it was less than 4.00; in that of `O=C(N[C@@H]1CCC[C@@H]1C(=O)O)c1cnn2ccc(C3CCN(C(=O)c4ccc(Cl)c(Cl)c4)CC3)cc12`, 4.42 and 4.39.

`Cc1[nH]c2ncnc(NC(=O)C3(c4ccc(F)cc4)CCC3)c2c1C`: the negative logarithm of the IC50 (pIC50) was 4.71 and 4.66. In the case of `O=C(O)C[C@@H](NC(=O)c1cnc2[nH]ccc2c1)c1ccc(Br)cc1` it was less than 4.00.

The record behind these values is ChEMBL document CHEMBL5441456, “ASAP - SARS-CoV-2 nsp3 macrodomain dose response” (2024).
